Literature values in patent publication US12133849B2, “Method for treating cancer using a BCL-2 inhibitor in conjunction with an alpha- emitting radioimmunotherapeutic” (Actinium Pharmaceuticals, Inc., priority 2017, dated 2024).

patients experiencing grade 3 and/or 4 neutropenia: 40%
SMILES: CC1(C)CCC(CN2CCN(c3ccc(C(=O)NS(=O)(=O)c4ccc(NCC5CCOCC5)c([N+](=O)[O-])c4)c(Oc4cnc5[nH]ccc5c4)c3)CC2)=C(c2ccc(Cl)cc2)C1 [venetoclax]
